Experimental data taken from ChEMBL document CHEMBL1201862, “PubChem BioAssay data set” (2004).
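Grown in 96-well plates, cells were treated for 48 hours with each compound at five concentrations. Insufficient inhibition: endpoint recorded as highest concentration tested. GI50 = concentration required for 50% inhibition of growth.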 The source made the active and inactive calls. No stated cut-off is given here; in the data, active = GI50 up to about 1.1 µM and inactive = higher.

How the values were obtained:
Experiment in all cases: NCI anticancer screen, dose series, 48 h
[1] = tested on: NCI-H522
[2] = tested on: HOP-92
[3] = tested on: HL-60
[4] = tested on: BT-549
[5] = tested on: IGROV-1
[6] = tested on: SK-MEL-28
[7] = tested on: RXF 393
[8] = tested on: NCI-H460
[9] = tested on: SNB-19
[10] = tested on: OVCAR-8
[11] = tested on: Malme-3M
[12] = tested on: MDA-MB-231
[13] = tested on: OVCAR-3
[14] = tested on: HCT-116
[15] = tested on: SR
[16] = tested on: NCI-H23
[17] = tested on: UACC-62
[18] = tested on: NCI-H226
[19] = tested on: TK-10
[20] = tested on: A549
[21] = tested on: DU-145
[22] = tested on: T47D
[23] = tested on: ACHN
[24] = tested on: EKVX
[25] = tested on: K562
[26] = tested on: MCF7
[27] = tested on: HT-29
[28] = tested on: SK-MEL-2
[29] = tested on: OVCAR-4
[30] = tested on: Hs-578T
[31] = tested on: RPMI-8226
[32] = tested on: MDA-MB-435
[33] = tested on: PC-3
[34] = tested on: CAKI-1
[35] = tested on: MOLT-4
[36] = tested on: COLO 205
[37] = tested on: LOX IMVI
[38] = tested on: SW-620
[39] = tested on: CCRF-CEM
[40] = tested on: SNB-75
[41] = tested on: HCT-15
[42] = tested on: SK-MEL-5
[43] = tested on: NCI/ADR-RES
[44] = tested on: OVCAR-5
[45] = tested on: HCC 2998
[46] = tested on: 786-0
[47] = tested on: UO-31
[48] = tested on: MDA-N
[49] = tested on: SF-295
[50] = tested on: M14
[51] = tested on: KM12
[52] = tested on: UACC-257
[53] = tested on: SK-OV-3
[54] = tested on: U-251
[55] = tested on: SF-268
[56] = tested on: A498
[57] = tested on: SN12C
[58] = tested on: HOP-62
[59] = tested on: SF-539

With `CC1=CC(O)CC(C)(C)C1/C=C/C(C)=C/C=C/C(C)=C/C=C/C=C(C)/C=C/C=C(C)/C=C/C1=C(C)CC(O)CC1(C)C` (stereo unspecified) as the compound, how does the GI50 [1] read?
The GI50 was 15.2 µM (inactive).

What about the GI50 [2] of the same compound?
The GI50 was 21.4 µM (inactive).

And the GI50 [3]?
The GI50 was 51.6 µM (inactive).

And the GI50 [4]?
Its GI50 is 17.8 µM (inactive).

And the GI50 [5]?
The GI50 was 26.5 µM (inactive).

What about the GI50 [6] of the same compound?
The GI50 was 17.5 µM (inactive).

And the GI50 [7]?
Its GI50 is 18.5 µM (inactive).

And the GI50 [8]?
The GI50 was 32.6 µM (inactive).

What about the GI50 [9] of the same compound?
Its GI50 is 53.2 µM (inactive).

And the GI50 [10]?
The GI50 was 19.7 µM (inactive).

What about the GI50 [11] of the same compound?
Its GI50 is 15.6 µM (inactive).

What about the GI50 [12] of the same compound?
The GI50 was 13.5 µM (inactive).

And the GI50 [13]?
The GI50 was 17.3 µM (inactive).

What about the GI50 [14] of the same compound?
Its GI50 is 15.7 µM (inactive).

What about the GI50 [15] of the same compound?
Its GI50 is 15.7 µM (inactive).

What about the GI50 [16] of the same compound?
Its GI50 is 24.7 µM (inactive).

And the GI50 [17]?
Its GI50 is 15 µM (inactive).

What about the GI50 [18] of the same compound?
Its GI50 is 21.4 µM (inactive).

And the GI50 [19]?
The GI50 was 57.8 µM (inactive).

What about the GI50 [20] of the same compound?
Its GI50 is 35.6 µM (inactive).

What about the GI50 [21] of the same compound?
The GI50 was 7.43 µM (inactive).

And the GI50 [22]?
Its GI50 is 20 µM (inactive).

And the GI50 [23]?
The GI50 was 16.6 µM (inactive).

What about the GI50 [24] of the same compound?
Its GI50 is 79.3 µM (inactive).

And the GI50 [25]?
The GI50 was 38.3 µM (inactive).

And the GI50 [26]?
Its GI50 is 27.7 µM (inactive).

And the GI50 [27]?
The GI50 was 14.9 µM (inactive).

And the GI50 [28]?
Its GI50 is 25 µM (inactive).

And the GI50 [29]?
The GI50 was 28.8 µM (inactive).

What about the GI50 [30] of the same compound?
The GI50 was 80.5 µM (inactive).

And the GI50 [31]?
The GI50 was 28.2 µM (inactive).

What about the GI50 [32] of the same compound?
Its GI50 is 17.5 µM (inactive).

And the GI50 [33]?
Its GI50 is 23.2 µM (inactive).

What about the GI50 [34] of the same compound?
The GI50 was 23.2 µM (inactive).

And the GI50 [35]?
The GI50 was 20.9 µM (inactive).

And the GI50 [36]?
The GI50 was 20.7 µM (inactive).

What about the GI50 [37] of the same compound?
The GI50 was 56.1 µM (inactive).

And the GI50 [38]?
Its GI50 is 19.1 µM (inactive).

And the GI50 [39]?
Its GI50 is 26.2 µM (inactive).

And the GI50 [40]?
Its GI50 is 26.5 µM (inactive).

What about the GI50 [41] of the same compound?
Its GI50 is 19.7 µM.

And the GI50 [42]?
Its GI50 is 16.6 µM (inactive).

And the GI50 [43]?
The GI50 was 24.5 µM (inactive).

And the GI50 [44]?
The GI50 was 34.8 µM (inactive).

And the GI50 [45]?
The GI50 was 83.9 µM (inactive).

What about the GI50 [46] of the same compound?
Its GI50 is 19.1 µM (inactive).

And the GI50 [47]?
The GI50 was 34 µM (inactive).

What about the GI50 [48] of the same compound?
The GI50 was 18.7 µM (inactive).

What about the GI50 [49] of the same compound?
The GI50 was 23.9 µM (inactive).

And the GI50 [50]?
Its GI50 is 13.8 µM (inactive).

What about the GI50 [51] of the same compound?
The GI50 was 38.6 µM (inactive).

And the GI50 [52]?
Its GI50 is 24.9 µM (inactive).

And the GI50 [53]?
The GI50 was 40.8 µM (inactive).

What does the source list for `O=c1c(Cc2c(O)ccc3ccccc23)nnc2sc(-c3nn4c(=O)c(Cc5c(O)ccc6ccccc56)nnc4s3)nn12`?
GI50 [2]: 38.1 µM (inactive); GI50 [3]: 30.8 µM (inactive); GI50 [4]: 25.4 µM (inactive); GI50 [54]: 26.2 µM (inactive); GI50 [5]: > 100 µM (inactive); GI50 [7]: 22.9 µM (inactive); GI50 [55]: 8.63 µM (inactive); GI50 [9]: 38.5 µM (inactive); GI50 [10]: > 100 µM (inactive); GI50 [11]: > 100 µM (inactive); GI50 [12]: 32.6 µM (inactive); GI50 [13]: > 100 µM (inactive); GI50 [14]: > 100 µM (inactive); GI50 [15]: > 100 µM (inactive); GI50 [16]: 54.7 µM (inactive); GI50 [17]: 29 µM (inactive); GI50 [19]: 37.3 µM (inactive); GI50 [56]: 42.2 µM (inactive); GI50 [20]: > 100 µM (inactive); GI50 [21]: > 100 µM (inactive); GI50 [22]: 37.2 µM (inactive); GI50 [23]: 57.4 µM (inactive); GI50 [24]: 29.2 µM (inactive); GI50 [25]: > 100 µM (inactive); GI50 [26]: 18 µM (inactive); GI50 [27]: > 100 µM (inactive); GI50 [28]: 13.4 µM (inactive); GI50 [29]: > 100 µM (inactive); GI50 [30]: 10.8 µM (inactive); GI50 [31]: > 100 µM (inactive); GI50 [32]: > 100 µM (inactive); GI50 [33]: > 100 µM (inactive); GI50 [34]: > 100 µM (inactive); GI50 [35]: > 10 µM (inactive); GI50 [37]: > 100 µM (inactive); GI50 [38]: > 100 µM (inactive); GI50 [39]: 30.5 µM (inactive); GI50 [40]: 9.2 µM (inactive); GI50 [41]: > 100 µM; GI50 [43]: > 100 µM (inactive); GI50 [44]: > 100 µM (inactive); GI50 [45]: > 100 µM (inactive); GI50 [46]: 14.8 µM (inactive); GI50 [47]: > 100 µM (inactive); GI50 [48]: > 100 µM (inactive); GI50 [50]: > 100 µM (inactive); GI50 [57]: > 100 µM (inactive); GI50 [52]: > 100 µM (inactive); GI50 [58]: 28.5 µM (inactive)

What does the source list for `COc1ccc(C(=O)c2sc(N(C)C)nc2-c2ccccc2)cc1`?
GI50 [2]: 91.6 µM (inactive); GI50 [59]: 58.7 µM (inactive); GI50 [3]: 17.1 µM (inactive); GI50 [4]: 26.1 µM (inactive); GI50 [54]: 43 µM (inactive); GI50 [5]: 42.6 µM (inactive); GI50 [6]: 32.1 µM (inactive); GI50 [7]: 54.3 µM (inactive); GI50 [55]: 40.1 µM (inactive); GI50 [8]: 20.2 µM (inactive); GI50 [9]: 64.3 µM (inactive); GI50 [11]: 37.4 µM (inactive); GI50 [12]: 33.7 µM (inactive); GI50 [13]: 16.8 µM (inactive); GI50 [14]: 31 µM (inactive); GI50 [15]: 17.1 µM (inactive); GI50 [16]: 34.5 µM (inactive); GI50 [17]: 30.8 µM (inactive); GI50 [18]: 67.5 µM (inactive); GI50 [19]: 37.9 µM (inactive); GI50 [56]: 26.9 µM (inactive); GI50 [20]: 36 µM (inactive); GI50 [21]: 49 µM (inactive); GI50 [22]: 33.6 µM (inactive); GI50 [23]: 33.7 µM (inactive); GI50 [25]: 35.4 µM (inactive); GI50 [26]: 21.6 µM (inactive); GI50 [27]: 32.9 µM (inactive); GI50 [28]: 22.5 µM (inactive); GI50 [29]: 23.4 µM (inactive); GI50 [30]: 38.7 µM (inactive); GI50 [31]: 33 µM (inactive); GI50 [32]: 6.4 µM (inactive); GI50 [33]: 28.9 µM (inactive); GI50 [35]: 81.3 µM (inactive); GI50 [36]: 33.7 µM (inactive); GI50 [37]: 37.4 µM (inactive); GI50 [38]: 30.9 µM (inactive); GI50 [39]: 5.07 µM (inactive); GI50 [40]: 35.2 µM (inactive); GI50 [41]: 26.4 µM; GI50 [42]: 34 µM (inactive); GI50 [43]: 19.8 µM (inactive); GI50 [44]: 36.7 µM (inactive); GI50 [45]: 18.2 µM (inactive); GI50 [46]: 34.4 µM (inactive); GI50 [47]: 32.1 µM (inactive); GI50 [48]: 18.1 µM (inactive); GI50 [50]: 35.3 µM (inactive); GI50 [51]: 15.8 µM (inactive); GI50 [57]: 39.6 µM (inactive); GI50 [52]: 26.1 µM (inactive); GI50 [53]: 22.5 µM (inactive); GI50 [58]: 20.6 µM (inactive)
